Laboratory results as given in patent publication US20170313674A1, “BENZYLHYDROXIDE DERIVATIVES, PREPARATION THEREOF AND THERAPEUTIC USE THEREOF” (SANOFI, priority 2014, published 2017).
Like-named read-outs stand apart in the source and are kept apart here.

Assays:
[1] = tested on: mitochondrial ATP production on non-small cell lung carcinoma cell lines NCI-H460; assay: Mitochondrial ATP analysis (Cell Titer Glo) in NCI-H460 cells; type: cell-based; details: 1-hour incubation, with sodium iodoacetate (100 μM), concentration inhibiting 50% of mitochondrial ATP production, read-out: IC50 (mito ATP)
How it was run: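 NCI-H460 cells (1,000/well) treated 24 h after plating for 1 h with compound dose series alone or with 100 μM sodium iodoacetate; oligomycin A (10 μg/ml) and FCCP (30 μM) as controls; Cell Titer Glo luminescence. Mitochondrial ATP = ATP under iodoacetate minus ATP under iodoacetate+oligomycin; IC50 (M).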

HIF-1a = assay: Western blot model: HIF1-a stabilization in Hep3b cells under hypoxia; type: cell-based; details: hypoxia 1% O2, 6 hours; for Western Blot (range of decrease of HIF1-a stabilization): class symbol
How it was run: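 Hep3B cells were exposed to compound under hypoxia (1% O2, 37 °C, 5% CO2) for 6 hours. HIF-1a was detected by western blot of 25 μg lysate protein with β-actin as loading control and ECL read-out. Activity is given as a percentage range relative to control.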

SMILES: COc1ccc(C(O)C(C)(C)Oc2ccc(-c3nsc(-c4ccc(OC(C)(C)C(O)c5ccc(OC)c(OC)c5)cc4)n3)cc2)cc1OC (stereo not drawn) [Compound I-42, 1-(3,4-dimethoxyphenyl)-2-[4-[5-[4-[2-(3,4-dimethoxyphenyl)-2-hydroxy-1,1-dimethyl-ethoxy]phenyl]-1,2,4-thiadiazol-3-yl]phenoxy]-2-methyl-propan-1-ol]
- IC50 ([1]; Homo sapiens, NCI-H460, 1 h): 30 nM
- Western Blot (decrease of HIF1-a stabilization, percentage relative to control) (HIF-1a): 56%
- Western Blot (range of decrease of HIF1-a stabilization) (HIF-1a): ** (** represents a decrease of HIF-a stabilization between 50 to 70%)

SMILES: COc1ccc(C(O)C(C)(C)Oc2ccc(-c3csc(-c4ccc(OC(C)(C)C(O)c5ccc(OC)c(OC)c5)cc4)n3)cc2)cc1OC (stereo not drawn) [Compound I-27, 1-(3,4-dimethoxyphenyl)-2-[4-[2-[4-[2-(3,4-dimethoxyphenyl)-2-hydroxy-1,1-dimethyl-ethoxy]phenyl]thiazol-4-yl]phenoxy]-2-methyl-propan-1-ol]
- IC50 [1]: 3.68 nM
- Western Blot (decrease of HIF1-a stabilization, percentage relative to control) (HIF-1a): 40%
- Western Blot (range of decrease of HIF1-a stabilization) (HIF-1a): * (* represents a decrease of HIF-a stabilization between 30 to 50%)

SMILES: COc1ccc(C(O)C(C)(C)Oc2ccc(-c3coc(-c4ccc(OC(C)(C)C(O)c5ccc(OC)c(OC)c5)cc4)n3)cc2)cc1OC (single isomer, unassigned) [Compound I-19, 1-(3,4-dimethoxyphenyl)-2-[4-[2-[4-[2-(3,4-dimethoxyphenyl)-2-hydroxy-1,1-dimethyl-ethoxy]phenyl]oxazol-4-yl]phenoxy]-2-methyl-propan-1-ol]
- IC50 [1]: 245 nM
- Western Blot (decrease of HIF1-a stabilization, percentage relative to control) (HIF-1a): 56%
- Western Blot (range of decrease of HIF1-a stabilization) (HIF-1a): ** (** represents a decrease of HIF-a stabilization between 50 to 70%)

SMILES: COc1ccc(C(O)COc2ccc(-c3noc(-c4ccc(OCC(O)c5ccc(OC)c(OC)c5)cc4)n3)cc2)cc1OC (stereo not drawn) [Compound I-36, 1-(3,4-dimethoxyphenyl)-2-[4-[5-[4-[2-(3,4-dimethoxyphenyl)-2-hydroxy-ethoxy]phenyl]-1,2,4-oxadiazol-3-yl]phenoxy]ethanol]
- IC50 ([1]; Homo sapiens, NCI-H460, 1 h): 676 nM
- Western Blot (decrease of HIF1-a stabilization, percentage relative to control) (HIF-1a): 62%
- Western Blot (range of decrease of HIF1-a stabilization) (HIF-1a): ** (** represents a decrease of HIF-a stabilization between 50 to 70%)

SMILES: COc1ccc(C(O)COc2ccc(-c3csc(-c4ccc(OCC(O)c5ccc(OC)c(OC)c5)cc4)n3)cc2)cc1OC (single isomer, unassigned) [Compound I-61, 1-(3,4-dimethoxyphenyl)-2-[4-[2-[4-[2-(3,4-dimethoxyphenyl)-2-hydroxy-ethoxy]phenyl]thiazol-4-yl]phenoxy]ethanol]
- IC50 [1]: 326 nM
- Western Blot (decrease of HIF1-a stabilization, percentage relative to control) (HIF-1a): 46%
- Western Blot (range of decrease of HIF1-a stabilization) (HIF-1a): * (* represents a decrease of HIF-a stabilization between 30 to 50%)

SMILES: COc1ccc(C(O)C(C)(C)Oc2ccc(-c3noc(-c4ccc(OC(C)(C)C(O)c5ccc(OC)c(OC)c5)cc4)n3)cc2)cc1OC (stereo not drawn) [Compound I-38, 1-(3,4-dimethoxyphenyl)-2-[4-[5-[4-[2-(3,4-dimethoxyphenyl)-2-hydroxy-11-dimethyl-ethoxy]phenyl]-1,2,4-oxadiazol-3-yl]phenoxy]-2-methyl-propan-1-ol]
- IC50 [1]: 133 nM
- Western Blot (decrease of HIF1-a stabilization, percentage relative to control) (HIF-1a): 79%
- Western Blot (range of decrease of HIF1-a stabilization) (HIF-1a): *** (*** represents a decrease of HIF-a stabilization higher than 70%)

SMILES: COc1ccc(C(O)C(C)Oc2ccc(-c3csc(-c4ccc(OC(C)C(O)c5ccc(OC)c(OC)c5)cc4)n3)cc2)cc1OC (single isomer, unassigned) [Compound I-29, 1-(3,4-dimethoxyphenyl)-2-[4-[2-[4-[2-(3,4-dimethoxyphenyl)-2-hydroxy-1-methyl-ethoxy]phenyl]thiazol-4-yl]phenoxy]propan-1-ol]
- IC50 [1]: 159 nM
- Western Blot (decrease of HIF1-a stabilization, percentage relative to control) (HIF-1a): 67%
- Western Blot (range of decrease of HIF1-a stabilization) (HIF-1a): ** (** represents a decrease of HIF-a stabilization between 50 to 70%)
